Assay results as given in US11053204B2, “Pyrimidinyloxy benzene derivatives as herbicides” (FMC Corporation, priority 2015, dated 2021).

Experiments:
Format in all cases: in vivo
[1] = test system: giant foxtail (Setaria faberii); test: Test A preemergence, visual injury rating; settings: Setaria faberi, pre-emergence, 240 h, 0 to 100 scale (0 no effect, 100 complete control), read-out: Foxtail, Giant plant response rating
Procedure, shortened: (§1)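 Scoring: eye-based comparison with untreated controls, 0 for no effect through 100 for complete control, at about day 10. Treatments: directed soil spray preemergence; foliar spray postemergence on 2–10 cm plants at the one- to two-leaf stage. Medium: loam soil with sand.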

[2] = test system: Italian ryegrass (Lolium multiflorum); test: Test A preemergence, visual injury rating; settings: Lolium multiflorum, pre-emergence, 240 h, 0 to 100 scale (0 no effect, 100 complete control), read-out: Ryegrass, Italian plant response rating
Procedure, shortened: as §1

[3] = test system: ragweed (common ragweed, Ambrosia elatior); test: Test A preemergence, visual injury rating; settings: Ambrosia artemisiifolia, pre-emergence, 240 h, 0 to 100 scale (0 no effect, 100 complete control), read-out: Ragweed plant response rating
Procedure, shortened: as §1

[4] = test system: barnyardgrass (Echinochloa crus-galli); test: Test A preemergence, visual injury rating; settings: Echinochloa crus-galli, pre-emergence, 240 h, 0 to 100 scale (0 no effect, 100 complete control), read-out: Barnyardgrass plant response rating
Procedure, shortened: as §1

[5] = test system: waterhemp (common waterhemp, Amaranthus rudis); test: Test C preemergence, plant response rating; settings: Amaranthus tuberculatus, pre-emergence, Preemergence
Source text: (§2) Seeds of plant species selected from blackgrass (Alopecurus myosuroides), ryegrass, Italian (Italian ryegrass, Lolium multiflorum), wheat (winter wheat, Triticum aestivum), galium (catchweed bedstraw, Galium aparine), corn (Zea mays), crabgrass, large (large crabgrass, Digitaria sanguinalis), foxtail, giant (giant foxtail, Setaria faberii), johnsongrass (Sorghum halepense), lambsquarters (Chenopodium album), morningglory (Ipomoea coccinea), nutsedge, yellow (yellow nutsedge, Cyperus esculentus), pigweed (Amaranthus retroflexus), ragweed (common ragweed, Ambrosia elatior), soybean (Glycine max), barnyardgrass (Echinochloa crus-galli), oilseed rape (Brassica napus), pigweed, palmer (palmer pigweed, Amaranthus palmeri), waterhemp (common waterhemp, Amaranthus rudis), velvetleaf (Abutilon theophrasti), kochia (Kochia scoparia), surinam grass (Brachiaria decumbens), nightshade (eastern black nightshade, Solanum ptycanthum), wild poinsettia (Euphorbia heterophylla), windgrass (Apera spica-venti), and oat, wild (wild oat Avena fatua), were planted into a blend of loam soil and sand or a silt loam soil and treated preemergence with test chemicals formulated in a non-phytotoxic solvent mixture which included a surfactant.
(§3) At the same time, plants selected from these crop and weed species and also chickweed (common chickweed, Stellaria media), buckwheat, wild (wild buckwheat, Polygonum convolvulus), wild mustard (Sinapis arvensis), field poppy (Papaver rhoeas), field violet (Viola arvensis), geranium, cutleaf (cutleaf geranium, Geranium dissectum), Canada thistle (Cirsium arvense), and speedwell (bird's-eye speedwell, Veronica persica), were planted in pots containing Sunshine Redi-Earth® planting medium comprising spaghnum peat moss, vermiculite, starter nutrients and dolomitic limestone and treated with postemergence applications of test chemicals formulated in the same manner. Plants ranged in height from 2 to 18 cm (1- to 4-leaf stage) for postemergence treatments. Treated plants and controls were maintained in a greenhouse for 13 to 15 d, after which time all species were compared to controls and visually evaluated. Plant response ratings, summarized in Table C, are based on a scale of 0 to 100 where 0 is no effect and 100 is complete control. A dash (-) response means no test result.

[6] = test system: foxtail, giant (giant foxtail, Setaria faberii); test: Test C preemergence, plant response rating; settings: Setaria faberi, pre-emergence, Preemergence
Source text: as §2, §3

[7] = test system: lambsquarters (Chenopodium album); test: Test C preemergence, plant response rating; settings: Chenopodium album, pre-emergence, Preemergence
Source text: as §2, §3

[8] = test system: velvetleaf (Abutilon theophrasti); test: Test C preemergence, plant response rating; settings: Abutilon theophrasti, pre-emergence, Preemergence
Source text: as §2, §3

[9] = test system: nutsedge, yellow (yellow nutsedge, Cyperus esculentus); test: Test C preemergence, plant response rating; settings: Cyperus, pre-emergence, Preemergence
Source text: as §2, §3

[10] = test system: oilseed rape (Brassica napus); test: Test C preemergence, plant response rating; settings: Brassica napus, pre-emergence, Preemergence
Source text: as §2, §3

[11] = test system: morningglory (Ipomoea coccinea); test: Test C preemergence, plant response rating; settings: Ipomoea, pre-emergence, Preemergence
Source text: as §2, §3

corn (Zea mays) = test: Test C preemergence, plant response rating; settings: Zea mays, pre-emergence, Preemergence
Source text: as §2, §3

[12] = test system: crabgrass, large (large crabgrass, Digitaria sanguinalis); test: Test C preemergence, plant response rating; settings: Digitaria sanguinalis, pre-emergence, Preemergence
Source text: as §2, §3

soybean (Glycine max) = test: Test C preemergence, plant response rating; settings: Glycine max, pre-emergence, Preemergence
Source text: as §2, §3

[13] = test system: ragweed (common ragweed, Ambrosia elatior); test: Test C preemergence, plant response rating; settings: Ambrosia artemisiifolia, pre-emergence, Preemergence
Source text: as §2, §3

[14] = test system: blackgrass (Alopecurus myosuroides); test: Test C preemergence, plant response rating; settings: Alopecurus myosuroides, pre-emergence, Preemergence
Source text: as §2, §3

[15] = test system: ryegrass, Italian (Italian ryegrass, Lolium multiflorum); test: Test C preemergence, plant response rating; settings: Lolium multiflorum, pre-emergence, Preemergence
Source text: as §2, §3

[16] = test system: wheat (winter wheat, Triticum aestivum); test: Test C preemergence, plant response rating; settings: Triticum aestivum, pre-emergence, Preemergence
Source text: as §2, §3

O=C(OCCC(F)(F)F)c1c(Cl)cccc1Oc1ncc(Cl)cn1 [Compound 15, 3,3,3-trifluoropropyl 2-chloro-6-[(5-chloro-2-pyrimidinyl)oxy]benzoate]
pest or weed control at 125 g/ha ([1]; 125 g ai/ha): 100% | pest or weed control at 500 g/ha ([1]; 500 g ai/ha): 100% | pest or weed control at 125 g/ha ([2]; 125 g ai/ha): 40% | pest or weed control at 500 g/ha ([2]; 500 g ai/ha): 90% | pest or weed control at 125 g/ha ([3]; 125 g ai/ha): 0% | pest or weed control at 500 g/ha ([3]; 500 g ai/ha): 10% | pest or weed control at 125 g/ha ([4]; 125 g ai/ha): 100% | pest or weed control at 500 g/ha ([4]; 500 g ai/ha): 100% | pest or weed control at 125 g/ha ([5]; 125 g ai/ha, scale of 0 to 100): 100% | pest or weed control at 16 g/ha ([5]; 16 g ai/ha, scale 0 to 100): 90% | pest or weed control at 31 g/ha ([5]; 31 g ai/ha, scale 0 to 100): 100% | pest or weed control at 62 g/ha ([5]; 62 g ai/ha, scale 0 to 100): 100% | pest or weed control at 62 g/ha ([6]; 62 g ai/ha, scale of 0 to 100): 100% | pest or weed control at 125 g/ha ([6]; 125 g ai/ha, scale of 0 to 100): 100% | pest or weed control at 16 g/ha ([6]; 16 g ai/ha, scale 0 to 100): 100% | pest or weed control at 31 g/ha ([6]; 31 g ai/ha, scale 0 to 100): 100% | pest or weed control at 125 g/ha ([7]; 125 g ai/ha, scale of 0 to 100): 95% | pest or weed control at 16 g/ha ([7]; 16 g ai/ha, scale 0 to 100): 60% | pest or weed control at 31 g/ha ([7]; 31 g ai/ha, scale 0 to 100): 70% | pest or weed control at 62 g/ha ([7]; 62 g ai/ha, scale 0 to 100): 85% | pest or weed control at 125 g/ha ([8]; 125 g ai/ha, scale of 0 to 100): 100% | pest or weed control at 16 g/ha ([8]; 16 g ai/ha, scale 0 to 100): 60% | pest or weed control at 31 g/ha ([8]; 31 g ai/ha, scale 0 to 100): 85% | pest or weed control at 62 g/ha ([8]; 62 g ai/ha, scale 0 to 100): 100% | pest or weed control at 125 g/ha ([9]; 125 g ai/ha, scale of 0 to 100): 50% | pest or weed control at 16 g/ha ([9]; 16 g ai/ha, scale 0 to 100): 0% | pest or weed control at 31 g/ha ([9]; 31 g ai/ha, scale 0 to 100): 0% | pest or weed control at 62 g/ha ([9]; 62 g ai/ha, scale 0 to 100): 5% | plant injury at 125 g/ha ([10]; 125 g ai/ha, scale of 0 to 100): 100% | plant injury at 16 g/ha ([10]; 16 g ai/ha, scale 0 to 100): 30% | plant injury at 31 g/ha ([10]; 31 g ai/ha, scale 0 to 100): 100% | plant injury at 62 g/ha ([10]; 62 g ai/ha, scale 0 to 100): 100% | pest or weed control at 125 g/ha ([11]; 125 g ai/ha, scale of 0 to 100): 60% | pest or weed control at 16 g/ha ([11]; 16 g ai/ha, scale 0 to 100): 20% | pest or weed control at 31 g/ha ([11]; 31 g ai/ha, scale 0 to 100): 20% | pest or weed control at 62 g/ha ([11]; 62 g ai/ha, scale 0 to 100): 35% | Corn plant response rating (crop injury, 0 = no effect, 100 = complete kill) at 62 g/ha (corn (Zea mays); 62 g ai/ha, scale of 0 to 100): 10% | Corn plant response rating (crop injury, 0 = no effect, 100 = complete kill) at 125 g/ha (corn (Zea mays); 125 g ai/ha, scale of 0 to 100): 25% | Corn plant response rating (crop injury, 0 = no effect, 100 = complete kill) at 16 g/ha (corn (Zea mays); 16 g ai/ha, scale 0 to 100): 0% | Corn plant response rating (crop injury, 0 = no effect, 100 = complete kill) at 31 g/ha (corn (Zea mays); 31 g ai/ha, scale 0 to 100): 0% | pest or weed control at 62 g/ha ([12]; 62 g ai/ha, scale of 0 to 100): 100% | pest or weed control at 125 g/ha ([12]; 125 g ai/ha, scale of 0 to 100): 100% | pest or weed control at 16 g/ha ([12]; 16 g ai/ha, scale 0 to 100): 95% | pest or weed control at 31 g/ha ([12]; 31 g ai/ha, scale 0 to 100): 100% | plant injury at 125 g/ha (soybean (Glycine max); 125 g ai/ha, scale of 0 to 100): 55% | plant injury at 16 g/ha (soybean (Glycine max); 16 g ai/ha, scale 0 to 100): 0% | plant injury at 31 g/ha (soybean (Glycine max); 31 g ai/ha, scale 0 to 100): 10% | plant injury at 62 g/ha (soybean (Glycine max); 62 g ai/ha, scale 0 to 100): 40% | pest or weed control at 125 g/ha ([13]; 125 g ai/ha, scale of 0 to 100): 20% | pest or weed control at 16 g/ha ([13]; 16 g ai/ha, scale 0 to 100): 10% | pest or weed control at 31 g/ha ([13]; 31 g ai/ha, scale 0 to 100): 10% | pest or weed control at 62 g/ha ([13]; 62 g ai/ha, scale 0 to 100): 30% | pest or weed control at 62 g/ha ([14]; 62 g ai/ha, scale of 0 to 100): 50% | pest or weed control at 125 g/ha ([14]; 125 g ai/ha, scale of 0 to 100): 80% | pest or weed control at 16 g/ha ([14]; 16 g ai/ha, scale 0 to 100): 0% | pest or weed control at 31 g/ha ([14]; 31 g ai/ha, scale 0 to 100): 0% | pest or weed control at 125 g/ha ([15]; 125 g ai/ha, scale of 0 to 100): 50% | pest or weed control at 16 g/ha ([15]; 16 g ai/ha, scale 0 to 100): 0% | pest or weed control at 31 g/ha ([15]; 31 g ai/ha, scale 0 to 100): 5% | pest or weed control at 62 g/ha ([15]; 62 g ai/ha, scale 0 to 100): 15% | plant injury at 125 g/ha ([16]; 125 g ai/ha, scale of 0 to 100): 5% | plant injury at 16 g/ha ([16]; 16 g ai/ha, scale 0 to 100): 0% | plant injury at 31 g/ha ([16]; 31 g ai/ha, scale 0 to 100): 0% | plant injury at 62 g/ha ([16]; 62 g ai/ha, scale 0 to 100): 0%
